Laboratory results from paper PMC4273984 (ACS Chemical Biology, 2014).

Experiments:
BrdT = BrdT (Homo sapiens, UniProt Q58F21); test: Protein-observed 19F NMR, 5FW-BrdT; format: binding; conditions: resonance perturbation in slow exchange
Brd4 = conditions: BET bromodomain inhibition; cited from earlier work
5FW-Brd4(1) = 5FW-Brd4(1) (Homo sapiens, UniProt O60885); test: Protein-observed 19F NMR; format: binding; conditions: W81 resonance perturbation
Brd4(1) = Brd4(1) (Homo sapiens, UniProt O60885); conditions: fluorescence anisotropy or TR-FRET; cited from earlier work
3FY-Brd4(1) = 3FY-Brd4(1) (Homo sapiens, UniProt O60885); test: Protein-observed 19F NMR; format: binding

CC[C@@H]1C(=O)N(C)c2cnc(Nc3ccc(C(=O)NC4CCN(C)CC4)cc3OC)nc2N1C1CCCC1 [BI2536]
binding to BrdT by PrOF NMR (BrdT): bind to BrdT

CC(=O)Nc1ccc(O)cc1 [acetaminophen]
Kd (5FW-Brd4(1)): 230 ± 30 µM | affinity for Brd4(1) (Brd4(1)): too weak | Kd (3FY-Brd4(1)): 290 ± 40 µM
